The values below come from US5545642A, “Derivatives of 1-(2-fluorocyclopropyl)-quinolonecarboxylic acid and 1-(2-fluorocyclopropyl)-naphthridonecarboxylic acid” (Bayer Aktiengesellschaft, priority 1993, dated 1996).

Values after ≈ are worked out from the molar mass of the structure shown. Like-named read-outs stand apart in the source and are kept apart here.

What is called MIC is the least concentration at which growth counts as inhibited. In general, LD50 refers to the dose expected to kill half of the subjects tested. A high value points to lower toxicity. A word on the IC50: it is the concentration that gives 50% inhibition. A lower IC50 goes with higher potency.

Series [1] deals with Escherichia coli Neumann. Kind of series: MIC, agar serial dilution (Iso-Sensitest agar), Escherichia coli Neumann. To be noted: 37° C., about 20 hours. It is filed as cell-based. How it is done: (§1) The minimum inhibitory concentrations (MIC) were determined on Iso-Sensitest agar (Oxoid) using a serial dilution method. For each substance to be tested, a series of agar plates was prepared, which plates contained diminishing concentrations of the active compound produced in each case by a doubling dilution. The agar plates were inoculated using a Multipoint Inoculator (Denley). For the inoculation, overnight cultures of the pathogens were used which had been diluted beforehand such that each inoculation point contained approximately 10^4 colony-forming particles. The inoculated agar plates were incubated at 37° C. and the growth of organisms recorded after about 20 hours. The MIC value (μg/ml) indicates the lowest concentration of active compound at which no growth was visible to the naked eye. […] Example 8 from European Patent Application 520 277): […]

For series [2], the system named is Klebsiella sp. 8085. As to the kind of experiment: MIC, agar serial dilution (Iso-Sensitest agar), Klebsiella sp. 8085. The class given is cell-based. To be noted: 37° C., about 20 hours. The procedure:
as §1

In series [3] the test system is Morganella morganii 932. Kind of series: MIC, agar serial dilution (Iso-Sensitest agar), Morganella morganii 932. To be noted: 37° C., about 20 hours. It is filed as cell-based. How it is done:
as §1

Series [4] has as its system Providencia sp. 12012. Kind of series: MIC, agar serial dilution (Iso-Sensitest agar), Providencia sp. 12012. The class given is cell-based. To be noted: 37° C., about 20 hours. How it is done:
as §1

Series [5] concerns Micrococcus luteus 9341. As to the kind of experiment: MIC, agar serial dilution (Iso-Sensitest agar), Micrococcus luteus 9341. The class given is cell-based. To be noted: 37° C., about 20 hours. The procedure:
as §1

The subject of series [6] is Staphylococcus aureus ICB 25701. Kind of series: MIC, agar serial dilution (Iso-Sensitest agar), Staphylococcus aureus ICB 25701. The class given is cell-based. Particulars: about 20 hours. The procedure: as §1
Series [7] has as its system Staphylococcus aureus 133. Kind of series: MIC, agar serial dilution (Iso-Sensitest agar), Staphylococcus aureus 133. It is filed as cell-based. To be noted: 37° C., about 20 hours. How it is done: as §1
Series [8] deals with Enterococcus faecalis 27101. As to the kind of experiment: MIC, agar serial dilution (Iso-Sensitest agar), Enterococcus faecalis 27101. The class given is cell-based. To be noted: 37° C., about 20 hours. The procedure:
as §1

Series [9] can be described thus: LD50 following intravenous administration to CFl mice (tolerance). The class given is in vivo. To be noted: mouse, in vivo, iv. How it is done:
(§2) The LD50 values listed in this table were determined following intravenous administration of the substances to CFl mice. The ID50 is understood to be the concentration of a substance at which the DNA synthesis in Chinese hamster ovary cells (CHO-KI) is inhibited by 50%. This value is determined following incubation of the corresponding substances in descending dilution steps for defined periods. For this purpose, the DNA synthesis in CHO-KI cells is determined in comparison to controls using fluorophotometric methods.

A short description of series [10]: in vitro. It is filed as cell-based, Chinese hamster. To be noted: hamster, cho-k1 cells. The procedure: as §2
For series [11], the system named is CFl mice. As to the kind of experiment: LD50 following intravenous administration to CFl mice (tolerance). It is filed as in vivo. How it is done: as §2
Series [12] has as its system Chinese hamster ovary cells (CHO-KI). As to the kind of experiment: in vitro. To be noted: cho-k1 cells. It is filed as cell-based. The procedure: as §2
The mark [13] stands for this setting: Escherichia coli, 20 h, read-out: MIC.
Where [14] appears, read: Micrococcus luteus, 9341, 20 h, read-out: MIC.
The mark [15] stands for this setting: ICB25701, 37° C., read-out: MIC.

Regarding `CN1CCC2=C(C1)CN(c1c(F)cc3c(=O)c(C(=O)O)cn(C4CC4)c3c1F)C2.Cl` [Ref. 1, 1-cyclopropyl-6,8-difluoro-1,4-dihydro-7-(5-methyl-2,3,4,5,6,7-hexahydro-1H-pyrrolo[3,4-c]pyridin-2-yl)-4-oxo-3-quinolinecarboxylic acid hydrochloride, reference compound], the MIC in series [1] (setting [13]) is at most 0.015 µg/mL; in series [2] (read-out: MIC), 0.06 µg/mL; in [3] (read-out: MIC) it was 0.03 µg/mL; in series [4] (read-out: MIC) it was 0.125 µg/mL; in series [5] (setting [14]) it was 0.5 µg/mL; in [6] (setting [15]), 1 µg/mL. Moreover, the MIC stood at 0.6 µg/mL in series [7] (read-out: MIC) and 0.125 µg/mL in series [8] (read-out: MIC). The compound also registered an LD50 in [9] of 50 mg/kg. In series [10], it took 1 µg/mL to reach half-maximal inhibition (IC50).

As for `CN1CCC2=C(C1)CN(c1c(F)cc3c(=O)c(C(=O)O)cn(C4CC4)c3c1Cl)C2` [Ref. 2, 8-chloro-1-cyclopropyl-6-fluoro-1,4-dihydro-7-(5-methyl-2,3,4,5,6,7-hexahydro-1H-pyrrolo[3,4-c]pyridin-2-yl)-4-oxo-3-quino-1-linecarboxylic acid, reference compound], the MIC came out at 0.03 µg/mL (≈ 0.0718 µM) in series [1] (setting [13]); 0.06 µg/mL (≈ 0.144 µM) in series [2] (read-out: MIC); 0.06 µg/mL (≈ 0.144 µM) in series [3] (read-out: MIC); 0.125 µg/mL (≈ 0.299 µM) in series [4] (read-out: MIC); 0.25 µg/mL (≈ 0.598 µM) in series [5] (setting [14]); 0.5 µg/mL (≈ 1.2 µM) in [6] (setting [15]). For the same compound, the values for the MIC in series [7] (read-out: MIC) and in series [8] (read-out: MIC) were 0.03 µg/mL (≈ 0.0718 µM) and 0.06 µg/mL (≈ 0.144 µM), respectively. In [9], this compound displayed an LD50 of 50 mg/kg. In series [10], this compound showed a half-maximal inhibitory concentration (IC50) of 16 µg/mL (≈ 38.3 µM).

`CN1CCC2=C(C1)CN(c1c(F)cc3c(=O)c(C(=O)O)cn([C@@H]4C[C@@H]4F)c3c1Cl)C2` (relative stereo) [Example 4, 8-chloro-6-fluoro-1-(cis-2-fluorocyclopropyl)-1,4-dihydro-7-(5-methyl-2,3,4,5,6,7-hexahydro-1H-pyrrolo[3,4-c]-pyridin-2-yl)-4-oxo-3-quinolinecarboxylic acid]: the MIC in [1] (setting [13]) was at most 0.015 µg/mL; in [2] (read-out: MIC), 0.06 µg/mL (≈ 0.138 µM); in [3] (read-out: MIC), 0.06 µg/mL (≈ 0.138 µM); in [4] (read-out: MIC) it was 0.06 µg/mL (≈ 0.138 µM); in series [5] (setting [14]), 0.125 µg/mL (≈ 0.287 µM); in [6] (setting [15]) it was 0.25 µg/mL (≈ 0.574 µM). In addition, the MIC in [7] (read-out: MIC) was at most 0.015 µg/mL; in [8] (read-out: MIC), 0.06 µg/mL (≈ 0.138 µM).

Consider `CN1CCC2=C(C1)CN(c1c(F)cc3c(=O)c(C(=O)O)cn([C@@H]4C[C@@H]4F)c3c1F)C2` (single isomer, unassigned) [Example 2, (-)-6,8-difluoro-1-(cis-2-fluorocyclopropyl)-1,4-dihydro-7-(5-methyl-2,3,4,5,6,7-hexahydro-1H-pyrrolo[3,4-c]pyridin-2-yl)-4-oxo-3-quinolinecarboxylicacid], for which the MIC in [1] (setting [13]) stood at 0.03 µg/mL (≈ 0.0715 µM); in series [2] (read-out: MIC) it was 0.06 µg/mL (≈ 0.143 µM); in series [3] (read-out: MIC), 0.06 µg/mL (≈ 0.143 µM); in [4] (read-out: MIC), 0.06 µg/mL (≈ 0.143 µM); in series [5] (setting [14]), 0.25 µg/mL (≈ 0.596 µM); in series [6] (setting [15]) it was 0.5 µg/mL (≈ 1.19 µM). Moreover, the MIC in series [7] (read-out: MIC) and in series [8] (read-out: MIC) was 0.06 µg/mL (≈ 0.143 µM) throughout. The compound also displayed an LD50 in series [11] of 200 mg/kg. Further, in series [10], the IC50 was 40 µg/mL (≈ 95.4 µM).

On to `CN1CCC2=C(C1)CN(c1c(F)cc3c(=O)c(C(=O)O)cn([C@@H]4C[C@@H]4F)c3c1F)C2` (relative stereo) [Example 1, 6,8-difluoro-1-(cis-2-fluorocyclopropyl)-1,4-dihydro-7-(5-methyl-2,3,4,5,6,7-hexahydro-1H-pyrrolo[3,4-c]pyridin-2-yl)-4-oxo-3-quinolinecarboxylic acid], for which the MIC was at most 0.015 µg/mL in [1] (setting [13]); 0.06 µg/mL (≈ 0.143 µM) in series [2] (read-out: MIC); 0.03 µg/mL (≈ 0.0715 µM) in series [3] (read-out: MIC); 0.06 µg/mL (≈ 0.143 µM) in [4] (read-out: MIC); 0.25 µg/mL (≈ 0.596 µM) in series [5] (setting [14]); 0.5 µg/mL (≈ 1.19 µM) in [6] (setting [15]). In addition, the MIC in [7] (read-out: MIC) and in [8] (read-out: MIC) was 0.06 µg/mL (≈ 0.143 µM) each time. For the same compound, in [9], the LD50 amounted to 150 mg/kg. Moreover, inhibition in series [10] was half-maximal at 35 µg/mL (≈ 83.5 µM) (IC50).

On to `CN1CCC2=C(C1)CN(c1c(F)cc3c(=O)c(C(=O)O)cn([C@@H]4C[C@@H]4F)c3c1F)C2` (single isomer, unassigned) [Example 3, (+)-6,8-difluoro-1-(cis-2-fluorocyclopropyl)-1,4-dihydro-7-(5-methyl-2,3,4,5,6,7-hexahydro-1H-pyrrolo[3,4-c]pyridin-2-yl)-4-oxo-3-quinolinecarboxylicacid], for which the MIC in series [1] was at most 0.015 µg/mL; in series [2], 0.06 µg/mL (≈ 0.143 µM); in series [3] it was 0.06 µg/mL (≈ 0.143 µM); in [4], 0.06 µg/mL (≈ 0.143 µM); in [5], 0.125 µg/mL (≈ 0.298 µM); in series [6] (37° C.) it was 0.5 µg/mL (≈ 1.19 µM). Further, the MIC in [7] and in series [8] was 0.06 µg/mL (≈ 0.143 µM) in each case. In addition, the LD50 in series [11] is given as 50 mg/kg. Moreover, the “ID50 (concentration at which DNA synthesis is inhibited by 50%)” value in series [12] came out at 40 µg/mL (≈ 95.4 µM).
